These results are taken from patent US20240139211A1, “METHODS AND COMPOSITIONS FOR TREATING AMYOTROPHIC LATERAL SCLEROSIS” (Amylyx Pharmaceuticals, Inc., priority 2022, published 2024).

By Tmax is commonly meant the time at which the peak concentration occurs. Broadly, the IC50 is the midpoint of a concentration-inhibition curve.

In data set [1] the target is OATP1B3 (Homo sapiens, UniProt Q9NPD5). Description: in vitro.
In data set [2] the test system is CYP1A2. Description: CYP1A2 enzyme activity induction in hepatocyte cultures.
Data set [3] relates to CYP3A4/5. Description: CYP3A4/5 enzyme activity induction in hepatocyte cultures.
For data set [4] the following is noted: male, CD (Sprague-Dawley) IGS, rat, in vivo.
The nature of data set [5]: in vivo. Particulars: male, CD (Sprague-Dawley) IGS, rat, po, 840 mg/kg.
Data set [6] has as its target T1, OCT2 (Homo sapiens, UniProt O15244).
T1 sequence (O15244 1-555): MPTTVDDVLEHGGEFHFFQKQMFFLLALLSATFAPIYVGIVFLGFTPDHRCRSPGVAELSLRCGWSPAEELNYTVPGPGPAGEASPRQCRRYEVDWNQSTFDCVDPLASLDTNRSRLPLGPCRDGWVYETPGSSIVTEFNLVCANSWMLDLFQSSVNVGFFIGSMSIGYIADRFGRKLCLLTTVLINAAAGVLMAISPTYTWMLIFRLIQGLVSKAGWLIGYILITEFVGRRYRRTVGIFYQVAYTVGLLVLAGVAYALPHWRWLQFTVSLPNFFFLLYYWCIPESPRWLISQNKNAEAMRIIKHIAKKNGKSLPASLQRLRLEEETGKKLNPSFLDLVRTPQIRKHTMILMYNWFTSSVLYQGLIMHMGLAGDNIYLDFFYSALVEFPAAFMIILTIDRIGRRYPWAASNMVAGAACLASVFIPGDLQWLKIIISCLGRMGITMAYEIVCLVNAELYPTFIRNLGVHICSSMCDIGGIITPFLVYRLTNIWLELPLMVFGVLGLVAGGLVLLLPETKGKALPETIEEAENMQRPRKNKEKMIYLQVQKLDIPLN
Description: in vitro.

Data set [7] deals with human plasma protein. Description: Human plasma protein binding. In kind it is in vitro ADME.
For data set [8], the target named is CYPs in human liver microsomes (HLM) (Homo sapiens, UniProt P10635). Particulars: 5 min.
For data set [9], the target named is CYPs in human liver microsomes (HLM) (Homo sapiens, UniProt P11712). To be noted: 5 min.
Data set [10] deals with T2, CYPs in human liver microsomes (HLM) (Homo sapiens, UniProt P20813).
T2 sequence (P20813 1-491): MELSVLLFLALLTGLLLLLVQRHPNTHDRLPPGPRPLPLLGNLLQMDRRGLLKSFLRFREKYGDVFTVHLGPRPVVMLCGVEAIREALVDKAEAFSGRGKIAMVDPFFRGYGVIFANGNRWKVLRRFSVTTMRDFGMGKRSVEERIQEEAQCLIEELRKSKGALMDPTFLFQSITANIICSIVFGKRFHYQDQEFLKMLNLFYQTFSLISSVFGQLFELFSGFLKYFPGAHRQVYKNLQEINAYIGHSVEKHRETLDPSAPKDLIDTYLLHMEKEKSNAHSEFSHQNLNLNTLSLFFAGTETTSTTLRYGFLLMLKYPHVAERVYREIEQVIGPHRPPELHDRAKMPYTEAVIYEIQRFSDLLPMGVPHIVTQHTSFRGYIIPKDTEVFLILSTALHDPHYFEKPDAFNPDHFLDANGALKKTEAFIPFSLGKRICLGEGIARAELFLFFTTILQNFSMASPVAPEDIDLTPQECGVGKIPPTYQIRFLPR
Particulars: 1 h.

Data set [11] deals with CYPs in human liver microsomes (HLM).
Data set [12] has as its target T3, OAT1 (Homo sapiens, UniProt Q4U2R8).
T3 sequence (Q4U2R8 1-563): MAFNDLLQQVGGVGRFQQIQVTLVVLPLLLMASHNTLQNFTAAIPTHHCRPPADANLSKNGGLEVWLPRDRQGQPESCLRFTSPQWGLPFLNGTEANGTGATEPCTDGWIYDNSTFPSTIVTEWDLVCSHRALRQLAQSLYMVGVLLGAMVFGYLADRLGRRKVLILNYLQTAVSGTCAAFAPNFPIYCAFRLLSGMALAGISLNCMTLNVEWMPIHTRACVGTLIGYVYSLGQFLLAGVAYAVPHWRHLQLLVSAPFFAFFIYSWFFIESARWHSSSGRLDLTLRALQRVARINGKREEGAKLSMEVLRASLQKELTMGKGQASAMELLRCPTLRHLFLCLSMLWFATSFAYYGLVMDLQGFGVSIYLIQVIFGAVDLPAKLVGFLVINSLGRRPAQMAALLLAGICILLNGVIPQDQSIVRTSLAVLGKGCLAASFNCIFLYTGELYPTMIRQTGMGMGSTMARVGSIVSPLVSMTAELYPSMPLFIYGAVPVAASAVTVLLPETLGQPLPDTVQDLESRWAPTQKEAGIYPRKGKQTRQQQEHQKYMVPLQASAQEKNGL
Put plainly: OAT1 inhibition, PAH uptake in transfected HEK cells.

The target in data set [13] is MATE2K (Homo sapiens, UniProt Q86VL8). Description: MATE2K inhibition, metformin uptake in transfected HEK cells. To be noted: read-out: Estimated IC50 toward MATE2K; TUDCA and PB present simultaneously.

Where two headings read alike, the source gives them in different places.

Chain of CYPs in human liver microsomes (HLM) (Homo sapiens, UniProt P11712) (P11712 whole entry): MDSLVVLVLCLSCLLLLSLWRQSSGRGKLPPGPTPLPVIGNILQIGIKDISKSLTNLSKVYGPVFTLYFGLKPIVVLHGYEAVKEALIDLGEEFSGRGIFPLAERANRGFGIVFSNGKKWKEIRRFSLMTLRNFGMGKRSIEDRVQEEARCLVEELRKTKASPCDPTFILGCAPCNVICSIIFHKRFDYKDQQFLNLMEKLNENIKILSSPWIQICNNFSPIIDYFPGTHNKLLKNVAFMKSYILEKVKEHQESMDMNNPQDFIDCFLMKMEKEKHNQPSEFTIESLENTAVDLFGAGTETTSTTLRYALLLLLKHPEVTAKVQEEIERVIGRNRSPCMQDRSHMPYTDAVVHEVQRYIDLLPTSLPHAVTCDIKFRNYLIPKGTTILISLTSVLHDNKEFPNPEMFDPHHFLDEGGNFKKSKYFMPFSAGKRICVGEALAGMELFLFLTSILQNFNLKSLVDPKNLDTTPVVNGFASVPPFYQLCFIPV
Chain of OATP1B3 (Q9NPD5 whole entry): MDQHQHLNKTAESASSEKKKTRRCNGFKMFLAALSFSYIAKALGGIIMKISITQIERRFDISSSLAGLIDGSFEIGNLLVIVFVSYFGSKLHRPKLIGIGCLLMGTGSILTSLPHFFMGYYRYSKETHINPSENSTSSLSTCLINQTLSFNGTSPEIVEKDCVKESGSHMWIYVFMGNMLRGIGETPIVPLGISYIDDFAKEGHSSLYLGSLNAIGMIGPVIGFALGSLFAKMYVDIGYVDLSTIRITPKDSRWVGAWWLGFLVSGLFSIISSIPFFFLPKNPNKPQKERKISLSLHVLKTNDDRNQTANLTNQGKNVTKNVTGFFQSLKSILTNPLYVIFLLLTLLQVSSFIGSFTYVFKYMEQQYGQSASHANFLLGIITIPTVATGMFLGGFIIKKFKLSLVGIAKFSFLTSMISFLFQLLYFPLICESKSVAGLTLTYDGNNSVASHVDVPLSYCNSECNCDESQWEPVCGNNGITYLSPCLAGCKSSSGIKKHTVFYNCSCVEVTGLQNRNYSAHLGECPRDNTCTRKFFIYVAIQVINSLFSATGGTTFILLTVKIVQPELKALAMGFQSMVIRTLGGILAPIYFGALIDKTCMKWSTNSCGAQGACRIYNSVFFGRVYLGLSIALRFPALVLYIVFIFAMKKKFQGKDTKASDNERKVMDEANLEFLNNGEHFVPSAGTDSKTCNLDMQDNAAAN
Chain of CYPs in human liver microsomes (HLM) (Homo sapiens, UniProt P10635) (P10635 whole entry): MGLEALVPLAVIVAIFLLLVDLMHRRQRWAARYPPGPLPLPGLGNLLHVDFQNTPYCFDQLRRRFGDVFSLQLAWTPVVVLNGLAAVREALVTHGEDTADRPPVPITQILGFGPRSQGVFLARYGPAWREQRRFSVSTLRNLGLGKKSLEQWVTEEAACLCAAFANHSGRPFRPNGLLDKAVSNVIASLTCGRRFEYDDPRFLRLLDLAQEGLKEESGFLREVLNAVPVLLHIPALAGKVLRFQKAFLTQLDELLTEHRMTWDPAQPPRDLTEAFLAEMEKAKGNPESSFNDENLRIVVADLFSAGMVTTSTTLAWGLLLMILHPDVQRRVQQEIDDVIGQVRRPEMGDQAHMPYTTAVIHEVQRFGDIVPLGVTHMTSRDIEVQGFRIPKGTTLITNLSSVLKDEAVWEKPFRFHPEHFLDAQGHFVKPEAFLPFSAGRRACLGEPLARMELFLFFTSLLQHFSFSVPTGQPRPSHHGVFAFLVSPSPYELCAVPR
Chain of MATE2K (Q86VL8 1-566 isoform Q86VL8-3): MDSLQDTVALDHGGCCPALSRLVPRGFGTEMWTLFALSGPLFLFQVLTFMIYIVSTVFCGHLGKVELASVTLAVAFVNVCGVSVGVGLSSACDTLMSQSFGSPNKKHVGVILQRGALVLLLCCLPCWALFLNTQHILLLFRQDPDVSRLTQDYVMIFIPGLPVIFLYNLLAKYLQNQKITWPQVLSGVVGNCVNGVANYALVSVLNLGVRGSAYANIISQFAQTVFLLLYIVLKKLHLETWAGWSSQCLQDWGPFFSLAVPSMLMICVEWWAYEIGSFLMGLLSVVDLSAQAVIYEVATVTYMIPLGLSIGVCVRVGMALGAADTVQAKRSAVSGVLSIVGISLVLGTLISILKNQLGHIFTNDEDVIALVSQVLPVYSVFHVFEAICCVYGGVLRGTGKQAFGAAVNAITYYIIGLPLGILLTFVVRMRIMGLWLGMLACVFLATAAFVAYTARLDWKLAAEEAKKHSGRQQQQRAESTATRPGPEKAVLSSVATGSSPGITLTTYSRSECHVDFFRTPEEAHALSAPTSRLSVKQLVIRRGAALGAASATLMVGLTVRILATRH

On to `C[C@H](CCC(=O)NCC(=O)O)[C@H]1CC[C@H]2[C@@H]3[C@@H](O)C[C@@H]4C[C@H](O)CC[C@]4(C)[C@H]3CC[C@]12C` [Glycoursodeoxycholic acid, glycoursodeoxycholic acid], for which, in [1], the potency estimated from few doses is < 100 µM. Moreover, the “Maximum fold induction of CYP1A2 activity” value in data set [2] (Donor 1, 72±2 h, three concentrations) is recorded as 5.93 fold; in data set [2] (Donor 2), 3.08 fold; in data set [2] (Donor 3), 9.43 fold. Moreover, the “Maximum fold induction of CYP3A4/5 activity” value in [3] (Donor 1) was 1.34 fold; in [3] (Donor 2), 1.98 fold; in data set [3] (Donor 3) it was 2.70 fold.
`O=C(O)CCCc1ccccc1` [PB, sodium phenylbutyrate]: the “Time through which plasma concentrations remained quantifiable” value in data set [4] was 4 h. Further, in [5], the Tmax fell in the range of 15 to 30 min.
With `O=C(O)Cc1ccccc1` [Phenylacetic acid, phenylacetic acid], the potency estimated from few doses in data set [6] is < 7500 µM.
Take tauroursodeoxycholic acid [TUDCA]: the “Human Plasma Protein Binding (%)” value in data set [7] worked out at 98.5%. The “% remaining of TA in HLM” value turned out to be 101% in data set [8]; 102% in data set [9]; 102% in data set [10]; 103% in data set [11] (5 min); 105% in data set [11] (1 h). Also, the “IC50 for in vitro inhibition of human OAT1” value in data set [12] (previous study, converted) lay in the range of 0.035 to 0.111 µg/mL. For the same compound, the IC50 was 0.074 to 0.222 µM in [12] (read-out: IC50 for in vitro inhibition of human OAT1, previous study (Example 6)) and > 810 µM in data set [13].
